Legend:
Assay type in all cases: cell-based, human
[1] = tested on: Kupffer cells and hPSC-macrophages; assay: Stimulation of macrophages, cytokine transcripts by RT-qPCR; conditions: LPS 100 ng/ml, 12 hrs
[2] = tested on: hPSC-derived multicellular liver culture; assay: LPS treatment of multicellular liver culture
Description: FIG. 2. Characterization of the multicellular liver culture. (A) Albumin secretion from three-cell (HEP/HSC/Mac), two-cell (HEP/HSC), and HEP monoculture, n=3. (B) Analysis of CYP3A4 and CYP2B6 transcripts in hepatocytes, n=4. (C) Analysis of LRAT transcript in HSCs from three-cell (HSC/HEP/Mac), two-cell (HSC/HEP, HSC/Mac) and HSC monoculture, n=4. (D) Staining of lipid droplets, hepatocytes (ALB), and HSCs (PCDH7). (E) Analysis of IL10 transcript in individual cell-type at three-weeks post-coculture, n=4. (F) Analysis of IL6 and TNF transcripts in macrophages, n=4. Positive control: IFNγ-treated macrophages. (G) Cytokines analysis in liver cultures treated with LPS (500 ng/ml) or control, with or without macrophages, n=4. Data are mean±S.D; Student's t-test (two-tailed) with Welch's corrections (B); One-way ANOVA with Tukey's multiple comparisons test (A, C, E-G).
FIG. 10. Characterization of multicellular liver culture. (A). Transcript levels of PPARG were analyzed in purified HSCs from the hPSC-derived liver cultures with three-cell (HSC, HEP, and Mac), two-cell (HSC and HEP, HSC and Mac) and HSC monoculture at the indicated time points post co-culture by RT-qPCR. […] Transcript levels of IL10 and macrophages marker CD163 were analyzed in purified macrophages from the hPSC-derived liver cultures with three-cell (HSC, HEP, and Mac) and two-cell (Mac and HEP, Mac and HSC) by RT-qPCR. […] HSC activation markers FN and COL1A1 were analyzed by western blot in HSCs purified from three-cell (HEP, HSC and Mac) and two-cell (HSC and HEP, HSC and Mac) liver cultures treated with LPS (100 ng/ml) for one week. […] Transcript levels of TGFB1 and IL1B in pooled cells from the liver cultures of three-cell (HSC, HEP, and Mac) and two-cell (HSC and HEP) were analyzed at one week post LPS (100 ng/ml) treatment by RT-qPCR. […] Transcript levels of IL1B and TGFB1 in purified individual cells from liver cultures treated with either vehicle control or LPS (100 ng/ml) for one week were analyzed by RT-qPCR. Fold changes were calculated by normalized to individual cells treated with vehicle control. […]

[3] = tested on: hPSC-derived HSCs; assay: In vitro activation of quiescent HSCs; conditions: for activation of hPSC-HSCs (COL1A1, FN, ACTA2 western blot): TGFβ1 5 ng/ml, FBS 10%, PDGF 30 ng/ml, 72 hrs
[4] = tested on: hPSC-derived and primary HSCs; assay: Cell migration (scratch) assay; conditions: 48 hrs
[5] = tested on: PNPLA3^WT liver cultures; assay: IL6 supplementation of liver cultures
Protocol: FIG. 15. Elevated IL6/STAT3 activity mediates the enhanced susceptibility to NAFLD phenotypes in PNPLA3^I148M liver cultures (A). Analysis of IL6 by ELISA in the supernatant of shRNA control (Ctrl) or sh-IL6 liver cultures maintained in lipotoxic condition for two weeks. Shown are mean±SD from 3 independent experiments. (B). From the experiment in (A), the transcript levels of CHI3L1 and CXCL10 in purified macrophages were analyzed by RT-qPCR. Shown are mean±SD from 3 independent experiments. (C-D). From the experiment in (A), HSCs were purified and subject to western blot analysis of STAT3 and phosphorylated STAT3 (T705) (C), and to RT-qPCR analysis of the transcript levels of inflammatory cytokine CCL5 and quiescent marker PPARG (D). For western blot, RPS11 was used as a loading control. For RT-qPCR, shown are mean±SD from 3 independent experiments. (E-H). The isogenic pair of liver cultures were maintained in lipotoxic condition for two weeks in the presence of either isotype control antibody (Ctrl) or IL6 neutralizing antibody (nIL6 Ab, 100 ng/ml). Individual cells were purified from these liver cultures and subject to RT-qPCR analysis of lipogenic-associated enzyme genes ACC1 and FASN in hepatocytes (E) and inflammatory cytokine CHI3L1 in macrophages (F), western blot analysis of HSC activation markers FN, COL1A1, and ACTA2 (G), and phosphorylated STAT3 (H) in HSCs. For western blot, RPS11 was used as a loading control. For RT-qPCR, shown are mean±SD from 3 independent experiments. (I-J). PNPLA3^WT liver cultures were treated with either healthy or lipotoxic condition for 5 days and then IL6 (100 pg/ml) was added to one set of lipotoxic treated cultures for additional 2 days. Hepatocytes were purified and subject to analysis for triacylglycerol (TAG) level (I), transcript levels of ACC1 and FASN (J) by RT-qPCR. For TAG quantification, shown are mean±SD for 4 independent experiments; for RT-qPCR, shown are mean±SD from 3 independent experiments. Statistical analysis was performed using a two-tailed unpaired t-test with Welch's corrections or One-way ANOVA/Tukey's multiple comparisons test to calculate exact p-values.
As a complementary approach, we determined if IL6 was sufficient to enhance NAFLD susceptibility in lipotoxic conditions by supplementing IL6 in PNPLA3^WT cultures to a level similar to that of PNPLA3^I148M cultures. We began after 5 days of lipotoxic exposure when disease phenotypes begin to manifest (FIG. 5B) and only maintained liver cultures for 2 more days to minimize the compounded effect of continuous IL6 secretion on our observations. […] Changes in glucose secretion were not detected, however, likely due to the brevity of IL6 supplementation.
Intracellular triacylglycerol levels were analyzed for hPSC-derived HEPs purified from different conditions using commercial kits (Promega) per the manufacturer's instructions.

[6] = lipotoxic 5 days, then IL6 100 pg/ml for 2 days

For lipopolysaccharide [LPS], the “inflammatory cytokine transcription in macrophages (CXCL10, IL6, IL1B)” value [1] was “transcribed inflammatory cytokines”, the “HSC activation markers in liver culture” value ([2]; LPS 100 ng/ml, one week) was “elevated activation markers” and the “cytoplasmic lipid droplets in HSCs in liver culture” value ([2]; LPS 100 ng/ml, one week) was “lost cytoplasmic lipid droplets”. The “IL1β and TGFβ1 levels produced by liver cultures” value ([2]; LPS treatment (500 ng/ml, FIG. 2G)) was “much higher levels” and the “cytokine induction in hPSC-HSCs (IL6, CXCL10 transcripts)” value ([3]; LPS 500 ng/ml, 12 hrs) was “induced cytokine”.

For `C[C@@H](N)[C@H]1CC[C@H](C(=O)Nc2ccncc2)CC1` [Y-27632, reference compound], the “motility of activated hPSC-HSCs (closure distance)” value ([4]; Y-27632 20 μM) was “markedly inhibited”.

For “TGFβ1: transforming growth factor beta 1, pro-fibrotic stimulus”, the “motility of hPSC-HSCs (closure distance)” value ([4]; activating stimulus, similar to pHSCs) was “enhanced motility” and the “activation of hPSC-HSCs (COL1A1, FN, ACTA2 western blot)” value [3] was “clearly activated”.

In the case of “IL6: interleukin 6, cytokine supplemented to liver cultures”, the “regulation of genes that drive the GO results of I148M homozygous patients” value ([5]; IL6-treated liver cultures) is reported as “readily regulated”, the “activation of HSCs from PNPLA3^WT cultures” value ([5]; IL6 addition under lipotoxic conditions) is reported as “dramatically activated” and the “changes in glucose secretion” value [5, 6] is reported as “not detected”. The “intracellular TAG levels in PNPLA3^WT hepatocytes” value [5, 6] was “increased” and the “lipogenesis-associated enzyme expression in PNPLA3^WT hepatocytes” value [5, 6] was “increased”.

B1: PDGF: platelet-derived growth factor, pro-fibrotic stimulus (protein, UniProt P01127 82-190, looked up)
Platelet-derived growth …: SLGSLTIAEPAMIAECKTRTEVFEISRRLIDRTNANFLVWPPCVEVQRCSGCCNNRNVQCRPTQVQLRPVQVRKIEIVRKKPIFKKATVTLEDHLACKCETVAAARPVT
modifications: homodimer PDGF-BB
notes: platelet-derived growth factor, pro-fibrotic stimulus
In the case of B1, the “activation of hPSC-HSCs (COL1A1, FN, ACTA2 western blot)” value [3] is reported as “clearly activated”.
